Results on 63 molecules are retold here after a melting point compilation (Tetko et al.; mined from patent text by program, amines drawn as free bases though some values may be those of a salt).

Molecules are shown by their SMILES.

In turn, `CCOC(=O)c1[nH]c(=O)[nH]c(=O)c1[N+](=O)[O-]` registered a melting point of 259 °C. As to `COc1ccc2cc(C(C)C(=O)ON(C(N)=O)C(C)c3ccoc3)ccc2c1` (stereo not drawn), the melting point was 128 to 134 °C.

Consider `O=C1NC(=O)C(=Cc2ccc(OCCNc3ncccn3)cc2)S1`, for which the melting point was determined as 234 °C. The value for `C[Si](C)(C)c1c(Br)cnc2c1CCO2` was 92 to 94 °C; that for `O=C1CCc2ncc3cc(Cl)c(Cl)cc3c2N1` was 350 °C; that for `CC(C)(C)n1nnc(-c2ccccc2-c2cccc3ccccc23)n1` was 83 to 85 °C. The value for `CCOC(=O)c1ccc(-c2ccc(OCCO)c(-c3ccc(N(CC)CC)c(C(C)(C)C)c3)c2)cc1` was 127 °C; that for `Nc1cc2c(cc1[N+](=O)[O-])CCC2` was 131 to 132 °C; that for `Nc1ccc(S(=O)(=O)NC(=S)NC23CC4CC(CC(C4)C2)C3)cc1` was 176 to 179 °C. The molecule `O=C1NCC(CCc2ccccc2Cl)O1` (stereo not drawn) had a melting point of 74 to 75 °C. The value for `O=C(O)CCCc1ccc(C(NS(=O)(=O)c2ccc(Cl)cc2)C2CCCCC2)cc1` (single isomer, unassigned; (+)) was 165 to 166 °C; that for `COC(=O)C(C)(C)C(Cc1ccc(OC)cc1)NS(=O)(=O)c1ccc(C)cc1` (stereo not drawn) was 126 to 127 °C; that for `CCCCOc1ccc(C(=O)Nc2ccc3cc(CN4CCCC4)cnc3c2C)c(F)c1` was 138 °C.

On to `CN1C(=O)C2(COc3cc4c(cc32)OCCO4)c2c(-c3ccoc3)cccc21` (stereo not drawn), for which the melting point lay within 178 to 180 °C. The value for `O=C(Oc1ccccc1)c1cc(Br)nn1-c1ncccc1Cl` was 65 to 67 °C; that for `Cc1nc2c(OCc3c(Cl)ccc(N(C)C(=O)CN4C(=O)c5ccccc5C4=O)c3Cl)cccn2c1Br` was 229 to 230 °C; that for `CCCCCCCCCCCCCCOc1ccc2c(C)c(C(=O)O)oc2c1` was 105 to 108 °C.

In the case of `COc1ccc2c(-c3ccccc3F)noc2c1`, the melting point was in the range of 101 to 103 °C. `COc1ccc(-c2c(C)c(NC(=O)CC(C)(C)C)c(C)c3c2OCC3c2ccc(C(C)C)cc2)cn1` (stereo not drawn) displayed a melting point of 120 to 123 °C. In the case of `Nc1ccc(Cn2c(=O)c3c(-c4noc(C5CC5)n4)ncn3c3ccccc32)cc1` it was 246 to 248 °C; in that of `CC1=CC(=O)c2nc3n(c2C1=O)CCC3`, 162 to 164 °C. `Cc1cccc(N2CCN(CCCCc3ccc(C4CCC(=O)N4)cc3)CC2)c1` (stereo not drawn) came in with a melting point of 114 to 116 °C. Take `O=C(c1ccccc1)c1cc(Cl)ccc1N=C=S`: the melting point lay in the range of 63 to 65 °C.

`Oc1ccc(-c2cnc(S)o2)cc1O` registered a melting point of 215 to 218 °C.

In the case of `COc1cc2c(cc1Br)CC/C2=C\C#N`, the melting point was in the range of 180 to 182 °C. In the case of `CSc1ccc(-c2nc(SC)c(C#N)c(=O)n2-c2ccc(C)c(C)c2)cc1`, the melting point was 234 to 236 °C. `O=C(O)C1CCc2c(c3ccccc3n2C(=O)c2ccc3c(c2)OCO3)C1` (stereo not drawn) had a melting point of 198 to 200 °C. For the molecule `CCN(CC)c1ccc(CN2C(=O)C(C)(c3ccccc3Cl)c3cc(Cl)ccc32)c(OC)c1` (stereo not drawn), the melting point came out at 198 °C. The value for `CCCCCN(CCC12CC3CC(CC(C3)C1)C2)C(=O)NCCCn1ccnc1` was 97 to 100 °C; that for `O=[N+]([O-])c1ccc2nc(-c3cccs3)oc2c1` was 208 to 210 °C; that for `COc1ccc(Cn2c(=O)[nH]c3ccc(C(=O)NCc4ccc5c(c4)OCO5)cc3c2=O)cc1` was 252 °C.

For the molecule `CSC1C(=O)Nc2c(Oc3cccc4ccccc34)cccc21` (stereo not drawn), the melting point is 134 to 139 °C.

`COc1cc(CCCC2SC(=O)NC2=O)ccc1OCc1csc(-c2ccccc2)n1` (stereo not drawn): the melting point is 123 to 124 °C.

For the molecule `CC(C)(C)OC(=O)N1CCC(NC(=O)c2ccc(-n3cccn3)cc2)C1` (stereo not drawn), the melting point lay within 263 to 264 °C.

The molecule `O=C(Cc1ccccc1)c1ccc(OCCN2CCCC2)cc1` had a melting point of 77 to 78 °C. The value for `CSC1(N)N=C(N(C)C)N=C(N)N1` (stereo not drawn) was 207 to 212 °C. In the case of `O=C1CCN(CCc2ccccc2)CC1C(c1ccccc1)c1ccccc1` (stereo not drawn) it was 73 to 76 °C; in that of `CN(C)c1ccc(C=CC(=O)N2CCc3c([nH]c4ccccc34)C2c2ccc3c(c2)CCO3)cn1` (stereo not drawn), 171 °C; in that of `CCc1cc2c(s1)-n1c(C)nnc1C(CCC(=O)O)N=C2c1ccc(Cl)cc1` (stereo not drawn), 210 to 212 °C. `COc1ccc2c(c1)CC(=O)NC2=O`: the melting point lay in the range of 212 to 215 °C. In the case of `CC(C)c1cc(S(=O)(=O)c2ccc(N)cc2)cc(N2CCCC2)n1` it was 148 to 150 °C; in that of `CC(C)(C)OC(=O)Nc1ccc(OC2CN(C(c3ccccc3)c3ccccc3)C2)cc1`, 149 to 151 °C. `COc1cc(-c2ccc3ncc(NC(=O)Nc4ccccc4)nc3n2)ccc1O`: the melting point is 240 °C.

The molecule `CCCCC(C(=O)OC)(C(=O)OC)c1nc(C)nc2c1c(SC)nn2-c1c(Cl)cc(Cl)cc1Cl` had a melting point of 146 to 152 °C. In the case of `Oc1ccc(C2=C(c3ccccc3)CCCc3cc(OC4CCCCO4)ccc32)cc1` (stereo not drawn) it was 183 to 185 °C; in that of `Cc1ccccc1CC[C@H]([C@H](C)O)n1cnc(C(N)=O)c1`, 60 to 62 °C; in that of `Cc1cc(-c2ccc(OC(C)C(O)CCc3cccnc3)cc2)ccc1C#N` (stereo not drawn), 93.5 to 94.5 °C. Molecule `CCOC(=O)c1cn(Cc2ccc(F)cc2)c2ccc(C(C)=O)cc2c1=O` registered a melting point of 207 to 209 °C. In the case of `Cc1ccc(S(=O)(=O)Nc2ccc(Oc3ccc4nc(COc5ccc(CC6SC(=O)NC6=O)cc5)n(C)c4c3)cc2)cc1` (stereo not drawn) it was 132 to 136 °C; in that of `CCOC(=O)c1csc(Nc2ccc(Br)cn2)n1`, 300 to 301 °C. Consider `Cc1c(Cl)cncc1Cl`, for which the melting point is 46 to 47 °C. In the case of `COc1cc(C=CCO)ccc1OCc1ccccc1` it was 81 to 82 °C; in that of `COc1cc(CO)c(-n2cccc2)cc1OC`, 92 to 93 °C. In the case of `O=S1(=O)CCC(=S)Nc2ccc(Cl)cc2C1c1ccccc1F` (stereo not drawn) it was 226 °C; in that of `CC(=O)N1c2ccccc2CC1C(N)=S` (stereo not drawn), 194 to 195 °C.

`CC(C)(C)c1cc(C(=O)Nc2ccccc2NC(=O)NCC(c2ccccc2)c2ccccc2)cc(C(C)(C)C)c1O` returned a melting point of 198 to 200 °C. In the case of `Cn1c(-c2ccccc2)c(C=O)c2ccc(Cl)cc2c1=O` it was 172 to 173 °C. The value for `CC(C)(C)c1cc(CCc2ccccc2NC(=O)NCc2cccnc2)cc(C(C)(C)C)c1O` was 163 to 164 °C; that for `N#Cc1cccc(C2=Nc3ccc(C#Cc4ccc(OC(F)(F)F)cc4)cc3NC(=O)C2)c1` was 239 to 241 °C; that for `O=C(Cn1ccnc1)c1ccc(-c2ccccc2)cc1` was 198 °C.

`COC(=O)c1c(Cl)cc(Cl)cc1NC(=O)CSc1ccccc1OC` registered a melting point of 93 to 94 °C. `CCOCc1nc2c(N)nc3ccccc3c2n1CCCC(C)=NO` had a melting point of 220 to 223 °C. Consider `O=C(O)COCc1nn(Cc2ccc(F)cc2)c2ccccc12`, for which the melting point lay within 135 to 136 °C.

As usually defined, the melting point is the temperature, or range, at which the solid turns liquid.
